Experimental data published in patent US9023616B2, “Oil producing microbes and method of modification thereof” (DSM Nutritional Products AG, priority 2006, dated 2015).

Legend:
ONC-T18 [1] = test: Fatty acid production antagonist supplementation of ONC-T18 culture, fatty acid profile by FAME GC-FID; format: cell-based, Thraustochytrium sp. ONC-T18; conditions: for DHA accumulated in ONC-T18, change versus control (in words): antagonist added to medium
Method: Media containing 25 g/l sea salt and 1 g/l yeast extract was autoclaved at 120° C. for 20 minutes. Sterilized glucose was added to the media at a concentration of 9 g/l. Sethoxydim (Supleco) was dissolved in dimethyl sulfoxide at a concentration of 5 mg/ml was then added to the media at to represent a final concentration of 100 µM. 1 ml of a 24 hour pre-culture of ONC-T 18 that had been cultured in the same media was added. Culturing was carried out in a shaker (130 rpm) for four days at room temperature. After the incubation period, cells were harvested by centrifugation at 4300 rpm for 10 minutes. The cell pellets were then freeze-dried, weighed and the oil was extracted from the cells.
(§1) The lipids were extracted and derivatized to fatty acid methyl esters (FAME) for gas chromatography analysis (GC). Transesterification and extraction was done using 200 mg freeze dried cells, with C19:0 as internal standard, added transesterification reaction mix (methanol:hydrochloric acid:chloroform, 10:1:1) mixed and heated at 90° C. for 2 hours, then allowed to cool at room temperature. FAMEs were extracted by adding 1 ml water, and 2 ml hexane:chloroform (4:1), and allow organic and aqueous phases to separate. The organic layer was extracted and treated with 0.5 g of anhydrous sodium sulfate to remove particulates and residual water. The organic solvents were evaporated under a stream of argon. The FAMEs were re-suspended in 5 ml of iso-octane and analyzed by GC-FID. The percent conversion was calculated by dividing the product produced by the sum of (the product produced plus the substrate added) and then multiplying by 100.
Media containing 6 g/l sea salt, 2 g/l yeast extract, and 8 g/l L-glutamic acid monosodium salt hydrate was autoclaved at 120° C. for 20 minutes. Sterilized D+-glucose was then added to this media at a concentration of 40 g/l. Cerulenin dissolved in ethanol at a concentration of 5 mg/ml was added to 250 ml flask and the solvent was evaporated for 1 hour prior to adding the media to the flask. The amount of cerulenin in the flask represented a final concentration of 20 mg/l. ONC-T18 was then added to the medium from a plate culture and culturing occurred in a shaker (130 rpm) at room temperature for four days. After the incubation period, cells were harvested by centrifugation at 4300 rpm for 10 minutes, washed once with distilled water, and then centrifuged again at 4300 rpm for 10 minutes. The cell pellets were then freeze-dried, weighed and the oil was extracted from the cells.
as §1, with “produced+the” for “produced plus the”
Media containing 6 g/l sea salt, 2 g/l yeast extract, and 8 g/l L-glutamic acid monosodium salt hydrate was autoclaved at 120° C. for 20 minutes. Sterilized D+-glucose wad then added at a concentration of 5 g/l or was not added to the media. Oleic acid was added to the media to represent a final concentration of 2 ml/l. […]

ONC-T18 [2] = test: Carotenoid content of ONC-T18 exposed to Norflurazon; format: cell-based, Thraustochytrium sp. ONC-T18
Method: Cells were harvested by centrifugation at 3800×g and washed with phosphate buffered saline. Then resuspended in 10× volume of acetone (Sigma-Aldrich, St Louis, Mo., USA), agitated for 5 minutes at 200 RPM, centrifuged at 3,800×g for 5 mins and concentrated to dryness by N2 evaporation. Followed by resuspension in a minimal amount of 10% acetone in hexane prior to HPLC analysis. Identifications were carried out on an Agilent 1100 HPLC (Agilent, Palo Alto, Calif., USA) equipped with a variable wavelength detector set at 470 nm. Samples were injected through a Symmetry C18 guard column (Waters, Milford, Mass., USA) to a Bondclone C18 reverse-phase column (Phenomenex, Torrance, Calif., USA; […] particles; 3.9×300 mm i.d.). The injection volume was 10 μl and a flow of 1 ml min^−1 10% acetone in hexane over a 25 minute period was used. Carotenoid identity was further confirmed with mass spectrometry analysis (Micromass ESI-QT of MS, Waters, Milford, Mass., USA). Quantitative data for each carotenoid was based on the development of a calibration curve using standards (astaxanthin, zeaxanthin, canthaxanthin, echinenone and β-carotene) and comparing peak area with defined concentrations.

[3] = system: Schizochytrium limacinum SR21; conditions: dose dependant; cited from earlier work
ONC-T18 [4] = test: 13C labeled oleic acid incorporation into polyunsaturated fatty acids; format: cell-based, Thraustochytrium sp. ONC-T18; conditions: added to culture medium
[5] = presence of the antagonist, oleic acid without glucose

Compound: CNc1cnn(-c2cccc(C(F)(F)F)c2)c(=O)c1Cl [norflurazon]
- DHA accumulated in ONC-T18, change versus control (in words) (ONC-T18 [1]): increase in the content and proportion of DHA
- DHA accumulated in ONC-T18, change versus control (in words) (ONC-T18 [1]; listed as Norflurazon): DHA increase
- proportion of PUFA in ONC-T18 fatty acid profile (in words) (ONC-T18 [1]; increasing amount added): proportion of PUFA increased
- adrenic acid, lipid as percentage of total fatty acid (ONC-T18 [1]; [5]): 0.17%
- arachidic acid, lipid as percentage of total fatty acid (ONC-T18 [1]; [5]): 0.16%
- arachidonic acid, lipid as percentage of total fatty acid (ONC-T18 [1]; [5]): 0.19%
- behenic acid, lipid as percentage of total fatty acid (ONC-T18 [1]; [5]): 0.05%
- docosadienoic acid, lipid as percentage of total fatty acid (ONC-T18 [1]; [5]): 0.03%
- docosahexaenoic acid, lipid as percentage of total fatty acid (ONC-T18 [1]; [5]): 20.61%
- docosapentaenoic acid n-3, lipid as percentage of total fatty acid (ONC-T18 [1]; [5]): 0.19%
- docosapentaenoic acid n-6, lipid as percentage of total fatty acid (ONC-T18 [1]; [5]): 5.23%
- eicosadienoic acid, lipid as percentage of total fatty acid (ONC-T18 [1]; [5]): 0.13%
- eicosapentaenoic acid, lipid as percentage of total fatty acid (ONC-T18 [1]; [5]): 0.76%
- eicosatetraenoic acid, lipid as percentage of total fatty acid (ONC-T18 [1]; [5]): 0.24%
- eicosatrienoic acid, lipid as percentage of total fatty acid (ONC-T18 [1]; [5]): 0.00%
- eicosenoic acid, lipid as percentage of total fatty acid (ONC-T18 [1]; [5]): 0.02%
- heneicosapentaenoic acid, lipid as percentage of total fatty acid (ONC-T18 [1]; [5]): 0.00%
- hexacosanoic acid, lipid as percentage of total fatty acid (ONC-T18 [1]; [5]): 0.00%
- homo-gamma-linolenic acid, lipid as percentage of total fatty acid (ONC-T18 [1]; [5]): 0.18%
- lignoceric acid, lipid as percentage of total fatty acid (ONC-T18 [1]; [5]): 0.00%
- margaric acid, lipid as percentage of total fatty acid (ONC-T18 [1]; [5]): 1.03%
- myristic acid, lipid as percentage of total fatty acid (ONC-T18 [1]; [5]): 11.08%
- myristoleic acid, lipid as percentage of total fatty acid (ONC-T18 [1]; [5]): 0.12%
- nervonic acid, lipid as percentage of total fatty acid (ONC-T18 [1]; [5]): 0.00%
- oleic acid, lipid as percentage of total fatty acid (ONC-T18 [1]; [5]): 0.00%
- palmitic acid, lipid as percentage of total fatty acid (ONC-T18 [1]; [5]): 40.61%
- palmitoleic acid, lipid as percentage of total fatty acid (ONC-T18 [1]; [5]): 10.65%
- pentadecanoic acid, lipid as percentage of total fatty acid (ONC-T18 [1]; [5]): 3.16%
- pentadecenoic acid, lipid as percentage of total fatty acid (ONC-T18 [1]; [5]): 0.33%
- stearic acid, lipid as percentage of total fatty acid (ONC-T18 [1]; [5]): 1.52%
- vaccenic acid, lipid as percentage of total fatty acid (ONC-T18 [1]; [5]): 3.53%
- carotenoid content of ONC-T18 (in words) (ONC-T18 [2]): carotenoid content decreased

Compound: Cc1ccc(C(=O)O)cc1 [p-toluic acid]
- EPA concentration (in words) [3]: increasing the EPA concentration
- omega-6 DPA concentration (in words) [3]: reducing the omega-6 DPA concentration

Compound: ^13C labeled oleic acid
- fate of 13C carbon from enriched oleic acid (in words) (ONC-T18 [4]): found in subsequent polyunsaturated fatty acids
